Patent US10647700B2, “EZH2 inhibitor and use thereof” (TARAPEUTICS SCIENCE INC., priority 2017, dated 2020)

What was measured:
[1] = target: EZH2 (Homo sapiens (Human), UniProt Q15910); test: E-cadherin promoter luciferase reporter gene primary screening in 293T cells; type: cell-based; conditions: 293T cells treated for 24 hours, Dual-Glo luciferase; for 1 μM relative fluorescence intensity: compound 1 μM; for 10 μM relative fluorescence intensity: compound 10 μM
Text: EZH2 suppresses the expression of downstream E-cadherin, and upon EZH2 suppression, expression of E-cadherin will increase. Based on such principle, a reporter gene expression vector was constructed using luciferase.
The amplified fragments after PCR and the PGL4.1 vector (purchased from TAKARA, Japan) were respectively subjected to enzyme digestion with SacI and BglII (purchased from TAKARA, Japan), and then purified with PCR cleanup kit (Axygen PCR cleanup kit). Subsequently, the purified and enzyme-digested PCR products was ligated to the purified and enzyme-digested PGL4.1 vector using ligase solution I (DNA Ligation Kit Ver.2.1, purchased from TAKARA, Japan), and subjected to transformation. Single clones were then screened out and subjected to sequencing, and the obtained positive plasmid containing promoter fragments of Ecadherin was named E-cadherin RE-PGL4.1.
Meanwhile, a Renilla fluorescent vector was constructed using PCDNA4.1 (purchased from Thermofisher, USA) as the template to amplify the fragment of CMV promoter. After enzymatic digestion of the amplified CMV sequences and pGL4.70 vector (purchased from Promega, USA) with KpnI and XhoI (purchased from Promega, USA), purification was conducted with PCR cleanup kit (Axygen PCR cleanup kit). Then the enzyme-digested PCR product was ligated to the enzyme-digested PGL4.70 vector using ligase solution I (DNA Ligation Kit Ver.2.1, purchased from TAKARA, Japan) and the resultant was subjected to transformation. Subsequently single clones were screened and subjected to sequencing, and the obtained plasmid that contained CMV sequence was named as Plasmid Renilla luciferase-pGL4.70. Said plasmid utilized CMV promoter to achieve high expression of Renilla luciferase, which served as the control fluorescence for the primary screening system.
The cells were firstly added with 20 μL Dual-Glo® Luciferase Assay Reagent, then incubated under room temperature for 10 minutes, and read on microplate reader Spectramax i3 (Molecular Devices, USA) to obtain the data of primary screening, which is shown in Table 1.

[2] = tested on: H3K27m3 methylation in Pfeiffer cells; test: Western Blot of H3K27m3 methylation in Pfeiffer cells; type: cell-based; conditions: 72 hours treatment, H3K27m3 methylation by Western Blot
Description: Meanwhile, the inventors further conducted Western Blot with Pfeiffer cells (purchased from ATCC, USA) for verification. […] Effect of compounds on H3K27m3 methylation in cells was assessed.

EZH2, sequence (Q15910 whole entry): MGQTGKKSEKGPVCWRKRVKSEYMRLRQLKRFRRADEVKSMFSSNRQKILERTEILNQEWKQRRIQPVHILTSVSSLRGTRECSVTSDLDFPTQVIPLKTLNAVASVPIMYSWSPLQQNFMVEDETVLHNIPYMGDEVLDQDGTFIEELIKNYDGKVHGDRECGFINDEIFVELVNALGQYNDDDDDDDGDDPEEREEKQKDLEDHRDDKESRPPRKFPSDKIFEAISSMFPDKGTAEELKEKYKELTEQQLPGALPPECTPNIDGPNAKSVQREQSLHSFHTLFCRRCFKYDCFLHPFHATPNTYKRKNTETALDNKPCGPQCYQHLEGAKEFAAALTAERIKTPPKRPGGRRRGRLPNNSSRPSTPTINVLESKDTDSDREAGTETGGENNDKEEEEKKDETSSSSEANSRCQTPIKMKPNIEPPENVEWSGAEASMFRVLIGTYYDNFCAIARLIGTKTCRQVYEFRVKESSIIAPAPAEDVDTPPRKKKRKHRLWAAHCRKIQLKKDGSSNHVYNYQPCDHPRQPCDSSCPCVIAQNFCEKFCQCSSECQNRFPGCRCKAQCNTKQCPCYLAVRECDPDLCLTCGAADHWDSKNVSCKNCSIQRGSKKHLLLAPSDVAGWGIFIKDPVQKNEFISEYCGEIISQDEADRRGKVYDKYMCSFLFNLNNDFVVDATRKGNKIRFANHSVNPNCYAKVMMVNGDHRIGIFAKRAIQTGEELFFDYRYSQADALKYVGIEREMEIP
EZH2, sequence (O75530 whole entry partner): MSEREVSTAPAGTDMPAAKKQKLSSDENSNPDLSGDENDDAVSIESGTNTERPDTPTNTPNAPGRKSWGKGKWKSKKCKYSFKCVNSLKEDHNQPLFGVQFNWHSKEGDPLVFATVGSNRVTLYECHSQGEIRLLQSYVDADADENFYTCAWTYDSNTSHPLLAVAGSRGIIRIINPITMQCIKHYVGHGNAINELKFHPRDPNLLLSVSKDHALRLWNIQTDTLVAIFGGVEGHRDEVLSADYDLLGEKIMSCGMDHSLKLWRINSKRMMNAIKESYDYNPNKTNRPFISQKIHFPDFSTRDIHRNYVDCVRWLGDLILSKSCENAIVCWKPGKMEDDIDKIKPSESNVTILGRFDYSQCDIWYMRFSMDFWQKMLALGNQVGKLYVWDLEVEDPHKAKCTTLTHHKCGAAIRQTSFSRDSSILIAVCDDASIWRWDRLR
EZH2, sequence (Q15022 whole entry partner): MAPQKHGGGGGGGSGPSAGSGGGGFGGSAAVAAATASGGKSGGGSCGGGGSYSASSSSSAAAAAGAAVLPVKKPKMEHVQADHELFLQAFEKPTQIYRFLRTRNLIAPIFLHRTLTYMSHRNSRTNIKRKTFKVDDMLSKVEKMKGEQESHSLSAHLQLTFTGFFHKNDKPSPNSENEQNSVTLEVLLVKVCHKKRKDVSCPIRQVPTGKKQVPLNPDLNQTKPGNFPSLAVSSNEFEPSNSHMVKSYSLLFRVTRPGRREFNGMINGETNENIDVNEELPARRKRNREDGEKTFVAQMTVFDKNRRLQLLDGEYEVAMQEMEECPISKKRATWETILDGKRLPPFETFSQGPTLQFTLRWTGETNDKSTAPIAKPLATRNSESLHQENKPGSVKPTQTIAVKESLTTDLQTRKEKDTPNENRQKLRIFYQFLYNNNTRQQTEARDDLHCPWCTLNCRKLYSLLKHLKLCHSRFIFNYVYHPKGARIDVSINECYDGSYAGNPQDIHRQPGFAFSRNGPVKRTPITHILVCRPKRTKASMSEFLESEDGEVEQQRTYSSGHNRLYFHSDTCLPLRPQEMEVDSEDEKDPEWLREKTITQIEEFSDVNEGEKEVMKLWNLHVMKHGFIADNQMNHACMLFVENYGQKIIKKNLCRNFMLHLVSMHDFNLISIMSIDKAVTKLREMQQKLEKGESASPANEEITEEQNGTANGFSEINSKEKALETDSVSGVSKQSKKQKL
EZH2, sequence (Q09028 whole entry partner): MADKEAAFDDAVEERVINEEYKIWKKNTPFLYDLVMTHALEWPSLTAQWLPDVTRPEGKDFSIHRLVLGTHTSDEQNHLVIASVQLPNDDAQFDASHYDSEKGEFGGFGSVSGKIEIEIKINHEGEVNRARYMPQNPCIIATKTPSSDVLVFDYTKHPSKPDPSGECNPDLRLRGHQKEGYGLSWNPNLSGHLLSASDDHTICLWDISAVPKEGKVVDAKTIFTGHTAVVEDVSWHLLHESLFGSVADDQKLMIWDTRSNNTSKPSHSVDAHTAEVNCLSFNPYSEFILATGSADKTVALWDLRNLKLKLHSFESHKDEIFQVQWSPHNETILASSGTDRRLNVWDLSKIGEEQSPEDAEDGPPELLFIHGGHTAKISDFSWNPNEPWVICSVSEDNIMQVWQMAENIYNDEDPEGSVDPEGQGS

SMILES	1 μM relative fluorescence intensity [1]	10 μM relative fluorescence intensity [1]	IC50 ([2]; Homo sapiens) [µM]	IC50 [2] [µM]
CCN(C(=O)C1CCCC1)c1cc(C#N)cc(C(=O)NCc2c(C)cc(C)[nH]c2=O)c1C [Compound 33, 5-cyano-N-((4,6-dimethyl-2-oxo-1,2-dihydropyridin-3-yl)methyl)-3-(N-ethylcyclopentanecarboxamido)-2-methylbenzamide]	123.27	224.69	0.67	
CCCc1cc(C)[nH]c(=O)c1CNC(=O)c1cc(-c2ccnc(N3CCN(CC4CC4)CC3)c2)cc(N(CC)C(=O)C2CCCC2)c1C [Compound 39, 5-(2-(4-(cyclopropylmethyl)piperazin-1-yl)pyridin-4-yl)-3-(N-ethylcyclopentanecarboxamido)-2-methyl-N-((6-methyl-2-oxo-4-propyl-1,2-dihydropyridin-3-yl)methyl)benzamide]			0.83	
CCN(C(=O)C1CCCC1)c1cc(-c2ccc(CN3CCOCC3)cc2)cc(C(=O)NCc2c(C)cc(C)[nH]c2=O)c1C [Compound 16, N-((4,6-dimethyl-2-oxo-1,2-dihydropyridin-3-yl)methyl)-5-(N-ethylcyclopentanecarboxamido)-4-methyl-4′-(morpholinomethyl)-[1,1′-diphenyl]-3-carboxamide]			0.126	
CCN(C(=O)C1CC1)c1cc(-c2ccc(CN3CCOCC3)cc2)cc(C(=O)NCc2c(C)cc(C)[nH]c2=O)c1C [Compound 5, N-((4,6-dimethyl-2-oxo-1,2-dihydropyridin-3-yl)methyl)-5-(N-ethylcyclopropanecarboxamido)-4-methyl-4′-(morpholinomethyl)-[1,1′-diphenyl]-3-carboxamide]			0.086	
CCN(C(=O)C1CCCC1)c1cc(-c2ccc(N3CCNCC3)nc2)cc(C(=O)NCc2c(C)cc(C)[nH]c2=O)c1C [Compound 32, N-((4,6-dimethyl-2-oxo-1,2-dihydropyridin-3-yl)methyl)-3-(N-ethylcyclopentanecarboxamido)-2-methyl-5-(6-(piperazin-1-yl)pyridin-3-yl)-benzamide]			0.95	
CCN(C(=O)C1CCCC1)c1cc(-c2ccc(N3CCN(C(=O)OC(C)(C)C)CC3)nc2)cc(C(=O)NCc2c(C)cc(C)[nH]c2=O)c1C [Compound 29, tertbutyl-4-(5-(3-(((4,6-dimethyl-2-oxo-1,2-dihydropyridin-3-yl)methyl)carbamoyl)-5-(N-ethylcyclopentanecarboxamido)-4-methylphenyl)pyridin-2-yl)piperazin-1-carboxylate]	176.86	364.77	2.6	
CC[C@H](C)n1cc(C)c2c(C(=O)NCc3c(C)cc(C)[nH]c3=O)cc(-c3ccc(N4CCNCC4)nc3)cc21 [GSK126, reference compound]				1.4
CCN1CCN(c2ccc(-c3cc(C(=O)NCc4c(C)cc(C)[nH]c4=O)c(C)c(N(CC)C(=O)C4CCCC4)c3)cc2)CC1 [Compound 27, N-((4,6-dimethyl-2-oxo-1,2-dihydropyridin-3-yl)methyl)-5-(N-ethylcyclopentanecarboxamido)-4′-(4-ethylpiperazin-1-yl)-4-methyl-[1,1′-diphenyl]-3-carboxamide]	204.86	335.96		
CCN(C(=O)C1CCCC1)c1cc(-c2ccc(OCCCN3CCOCC3)cc2)cc(C(=O)NCc2c(C)cc(C)[nH]c2=O)c1C [Compound 30, N-((4,6-dimethyl-2-oxo-1,2-dihydropyridin-3-yl)methyl)-5-(N-ethylcyclopentanecarboxamido)-4-methyl-4′-(3-morpholinopropoxy)-[1,1′-diphenyl]-3-carboxamide]	253.44	231.21		
